Patent US20110237670A1, “IMPROVEMENT OF NORMAL COGNITIVE FUNCTION” (priority 2008, published 2011)

Experiments:
Male NMRI mice [1] = experiment: novel object recognition test (learning and memory formation); type: in vivo
Experimental: (§1) Male NMRI mice (Charles River, Germany, 25-35 g) were used in examples 1, 2 and 3. The animals were housed nine per cage in a colony room under constant temperature (20±1° C.) and humidity (50±5%). Animals were allowed to acclimatize for at least one week prior to behavioral testing. The daylight cycle was maintained artificially (lights on from 0600 to 1800 hours) and behavioral experiments were conducted during the light phase. The Ethics Committee for Animal Experiments, Goteborg, Sweden, approved all experimental procedures used in the present study.
There are several learning and memory tasks that are appropriate for study in rodents. One widely used is the novel object recognition test. The test involves exposing the rodent to two identical objects for a brief period of time (the introductory session). […] Furthermore, very similar aspects of memory formation (involving encoding, con solidation and retrieval of information) can be assessed in human using the Brief Visual Memory Task-Revised (BVMT-R). […]
The object exploration time was manually scored from the videotapes. […]
Data are expressed as means and standard errors of the mean (S.E.M.). […]
A discrimination index was calculated for each animal: Tn/(Tf+Tn)*100 […]

Male NMRI mice [2] = experiment: prepulse inhibition (PPI) of acoustic startle response model (pre-attentive information processing); type: in vivo; conditions: for increase in capacity to filter information pre-attentively (absolute change in PPI at day 1 compared to matching test): acute administration, day 1, FIG. 1B; for effect on PPI response: day 1 and day 3, prepulse level 9 dB over background noise
Source text: One way to elucidate how substances affect our cognitive function is to measure how the brain processes information. Pre-attentive information processing is thought to be important for selective and efficient processing of sensory information and for coherent cognitive operations, and thus for memory and cognitive functions. Pre-attentive information processing can be assessed by using the prepulse inhibition (PPI) of acoustic startle response model. One major advantage of the PPI model is that it is a translational behavior. […] PPI is the reduction in reflex response to an intense stimulus when this stimulus is immediately preceded (30-500 ms) by a weak prestimulus. The presentation of the prestimulus, although not strong enough to elicit a measurable response by itself, evokes a short lasting sensory gating process in the brain, which is manifested by the attenuated response to the successive intense stimulus. PPI is hypothesized to reflect the ability of the central nervous system to filter out distracting and irrelevant stimuli before it reaches the cortex. An increased, i.e. improved, PPI could result in better inhibitory mechanisms that filter or gate intrinsic and extrinsic stimuli prior to higher order processing. […] Furthermore, PPI and other cognitive functions are regulated by the same cortico-striato-pallido-thalamic circuitry and association between these different cognitive domains has been shown.
as §1
Acoustic startle was recorded using a MOPS 3 startle response recording system (Metod och Produkt Svenska AB, Sweden). The animals were placed in small plexi glass cages (10×5.5×6 cm) that were suspended at the top of a piston. A movement of the animal in the cage caused a displacement of the piston, the acceleration of which was registered by a piezo-electric accelerometer. This signal was sampled and digitized by a microcomputer that also controlled the delivery of acoustic stimuli. Startle amplitude was defined as the maximum signal amplitude occurring 8-30 ms after the startle-eliciting stimulus. Four cages were used simultaneously and each cage was housed in a dimly lit and sound attenuated cabinet (52×42×38 cm). The cages were calibrated for equal sensitivity prior to testing and a mouse was always tested in the same cage at subsequent tests. The acoustic stimuli consisted of white noise, which was delivered by two high-frequency loudspeakers built into the ceiling of the cabinet.
Each test session started with an 8-min adaptation period containing only white background noise at 65 dB (A). Startle pulse was set to 105 dB (A) and prepulse intensities to 3, 9 and 12 dB (A) above background noise. Duration of acoustic stimuli was set to 20 ms for both prepulses and startle pulses and interstimulus interval (ISI) was set to 40 ms. Following the adaptation period the animals were subjected to a series of 5 startle pulse-alone trials that were omitted from the analysis since they only served to accommodate the animals to the sudden stimulus onset. The animals were then subjected to a pseudo-randomized combination of 3 prepulse-alone trials for each prepulse intensity, 45 pulse-alone trials and 15 prepulse+pulse trials for each prepulse intensity. Trials were separated by 5-15 s intervals.
All mice were first subjected to a pre-test to ensure that they expressed basal startle reactivity.

[3] = in vivo, cited from earlier work
mice = conditions: pre-attentive information filtering; cited from earlier work
Male NMRI mice [4] = experiment: habituation of acoustic startle response (non-associative learning); type: in vivo; conditions: acute 1000 mg/kg intraperitoneally, block 6, versus saline, p<0.05, FIG. 2
Experimental: as §1
The model used to measure non-associative learning was habituation of acoustic startle response. Habituation refers to the decrease in response to repeated presentation of identical stimuli and the model used for this test is also translational in nature. Since habituation is a measure of how the brain filter outs irrelevant stimuli and focus selectively on important stimuli, it is thought to be a prerequisite for other forms of learning and cognitive functions.
Acoustic startle was recorded using a MOPS 3 startle response recording system (see example 1). […]
The first startle pulse response was omitted from statistical analysis since it was too variable to achieve significance. […] Habituation, the change in mean response amplitude over time, was calculated using the formula: […]

[5] = test system: patients with schizophrenia; conditions: adjunctive treatment, 6 g/day; cited from earlier work
humans = conditions: cited from earlier work
healthy volunteers = conditions: human, in vivo; cited from earlier work
[6] = test system: patients with Alzheimer's disease; conditions: human, in vivo; cited from earlier work

| SMILES | time exploring the two similar objects during the introductory session versus saline (Male NMRI mice [1]; 1000 mg/kg intraperitoneally 30 min before the introductory session) | exploration of the familiar object, recognition session compared with introductory session (Male NMRI mice [1]; 1000 mg/kg intraperitoneally, 90 min delay, p<0.05, FIG. 3B) | pulse-alone response (acoustic startle; sedative properties) (Male NMRI mice [2]; 500-2000 mg/kg) | increase in capacity to filter information pre-attentively (absolute change in PPI at day 1 compared to matching test) (Male NMRI mice [2]; L-lysine 500 mg/kg intraperitoneally) [%] | increase in capacity to filter information pre-attentively (absolute change in PPI at day 1 compared to matching test) (Male NMRI mice [2]; L-lysine 1000 mg/kg intraperitoneally) [%] | increase in capacity to filter information pre-attentively (absolute change in PPI at day 1 compared to matching test) (Male NMRI mice [2]; L-lysine 2000 mg/kg intraperitoneally) [%] | final PPI test at day 9 (Male NMRI mice [2]; after a 6-day washout period) | effect on PPI response (Male NMRI mice [2]; doses 500 mg/kg and 1000 mg/kg) | effect on PPI response (Male NMRI mice [2]; highest dose 2000 mg/kg) | effect of test day on PPI (day 1 versus day 3, repeated administration) (Male NMRI mice [2]; once daily for three days, 500-2000 mg/kg) | oral bioavailability ([3]; po) | blood-brain barrier penetration [3] | effect on cognitive impairments induced by phencyclidine (mice) | habituation of the acoustic startle response (Male NMRI mice [4]) | effect on symptoms in patients with schizophrenia [5] | reported adverse effects in humans (humans; L-lysine treatment in general) | adverse effects in long-term studies (humans; administration up to 2 years) | reported adverse effects in short-term human studies (humans; doses as high as 40 g/day, resolved as the dose was decreased) | effect on cognition in healthy volunteers (healthy volunteers) | effect on cognition in patients with Alzheimer's disease [6] |
| --- | --- | --- | --- | --- | --- | --- | --- | --- | --- | --- | --- | --- | --- | --- | --- | --- | --- | --- | --- | --- |
| NCCCC[C@H](N)C(=O)O [L-lysine] | no difference | significantly less exploration of the familiar object | did not affect the pulse-alone response | 28.7 | 51.3 | 9.0 | did not demonstrate any significant effects | improved the PPI response in a dose related manner | did not affect PPI significantly | no significant effect of test day | very good oral bioavailability | easily penetrates the blood-brain barrier | can restore cognitive impairments | improves the brain capacity to filter out irrelevant information | possibly can improve some symptoms | transient gastrointestinal problems in a few patients | have not revealed any adverse effects | abdominal cramps and transient diarrhea |  |  |
| COc1cc2c(cc1OC)C(=O)C(CC1CCN(Cc3ccccc3)CC1)C2 (stereo not shown) [Donezepil] |  |  |  |  |  |  |  |  |  |  |  |  |  |  |  |  |  |  | no or detrimental effects on cognition | enhance cognition |
| CC12CC3CC(C)(C1)CC(N)(C3)C2 [Memantine] |  |  |  |  |  |  |  |  |  |  |  |  |  |  |  |  |  |  | no or detrimental effects on cognition | enhance cognition |
